Results on 4 molecules are retold here after US20060286630A1, “Posh interacting proteins and related methods” (Proteologics, Inc., priority 2003, published 2006).

One series has as its system HBV. The series is described as follows: Inhibition of HBV production in HepG2.2.15 cells. The series is classed as cell-based. As to conditions: 3 μM, treated every 24 hours for 4 days, FIG. 35 lanes 7 and 8. The method, then:
HepG2.2.15 cells were plated on 9 cm dishes and allowed to grow in 8% FCS for 5 days up to 70% confluence. After 5 days, cells were washed twice with PBS and re-supplied with fresh DMEM without FCS. In this medium, cells were treated every 24 hours with the depicted solutions (3 μl solution/11 ml medium) for another 4 days (4 treatments total). After 4 days, medium was collected from each plate, viruses were sedimented and analyzed.
Detection of HBV proteins was performed essentially as described in Paran, N et al (2001) EMBO J 20(16):4443-4453.

The test system of series [1] is Bacterially expressed recombinant maltose-binding-protein (MBP)-hPOSH [MBP: P0AEX9].
Series [2] relates to HIV-1. As to conditions: Cartier et al., 2003, J Biol Chem., 278:35211-9; cited from earlier work.
Series [3] concerns HIV-1. As to conditions: H89 50 μM; HeLa SS6 cells transfected with pNLenv-1; VLPs collected twenty minutes after shift from 20° C. to 37° C.
Method: HeLa SS6 cells were transfected with pNLenv-1PTAP or pNLenv-1ATAA (L-domain mutant). Eighteen hours post-transfection, cells were transferred to 20° C. for two hours in order to inhibit transport of viral particles from the trans-Golgi (TGN) to the plasma membrane (PM). Subsequently, the PKA inhibitor, H89 (50 μM) (Biosource, Cat. No. PHZ1114) or DMSO were added to the cells and dishes were transferred to 37° C. to initiate transport from the TGN to the PM. Reverse transcriptase activity was assayed from virus-like-particles collected from cell supernatant twenty minutes later.

With `O=C1C=CC(=O)N1c1ccc(OC(F)(F)C(F)F)c(N2C(=O)C=CC2=O)c1` [CAS number 14567-55-4], the HBV production entry with HBV is “inhibit HBV production”.
In the case of PKA catalytic subunit (PKAc), in series [1], the “in-vitro phosphorylation of MBP-hPOSH by PKA catalytic subunit, immunoblot” value was “POSH is phosphorylated by PKA”.
On to `O=S(=O)(NCCNCC=Cc1ccc(Br)cc1)c1cccc2cnccc12` [H89, N-[2-((Pbromocinnamyl)amino)ethyl]isoquinolinesulfonamide], for which the “HIV-1 release from cells” value in the series on HIV-1 [2] is recorded as “able to block HIV-1 release from cells”. Besides, the “RT activity of virus-like particles collected from cell supernatant” value in the series on HIV-1 [3] is “complete inhibition”.
`Oc1c(Br)cc(Cl)cc1/C=N/c1ccccc1Br` [CAS number 414908-38-0]: the HBV production result with HBV is given as “inhibit HBV production”.
